Where two headings read alike, the source gives them in different places.

By IC50 is commonly meant the concentration that inhibits the measured activity by half. The term AUC(0-t) denotes exposure summed from dosing to a finite time, without extrapolation to infinity. Read a high AUC(0-t) as high exposure. The clearance is the volume of plasma or blood freed of the substance per unit of time. Low readings indicate inefficient removal, high ones efficient removal. By half-life is commonly meant the time in which the quantity being followed falls by half. In general, Cmax refers to the maximum level reached in the sampled fluid or tissue. For orientation: Tmax means the time from dosing to the highest level.

In one series the target is T1, Human DNA-PK (Homo sapiens, UniProt P78527).
T1 construct: purchased Eurofins (Eurofins Pharma Discovery Service)
As to the kind of experiment: DNA-dependent protein kinase (DNA-PK) inhibitory activity screening (Eurofins, HTRF). In kind it is biochemical. The settings on record: ATP: 10 μM; read-out: DNA-PK kinase inhibition IC50. As to the method:
Experimental Embodiment 1: DNA-Dependent Protein Kinase (DNA-PK) Inhibitory Activity Screening Experiment
This experiment was tested in the Eurofins
Human DNA-PK; Mg/ATP; GST-cMyc-p53; EDTA; Ser15 antibody; ATP: 10 μM.
Experimental Method (Eurofins Pharma Discovery Service):
DNA-PK (h) was incubated in assay buffer containing 50 nM GST-cMyc-p53 and Mg/ATP (according to the required concentration). The reaction was initiated by adding Mg/ATP mixture. After 30 minutes of incubation at room temperature, the reaction was stopped by adding a stop solution containing EDTA. Finally, detection buffer (containing labeled anti-GST monoclonal antibody and europium-labeled anti-Ser15 antibody against phosphorylated p53) was added. The plate was then read in time-resolved fluorescence mode, and the homogeneous time-resolved fluorescence (HTRF) signal was determined according to the formula HTRF=10000×(Em665 nm/Em620 nm).
On the technique in general: TR-FRET usually uses a lanthanide donor and a delayed reading to cut background.

Series [1] is described as follows: Pharmacokinetic evaluation (1): cassette PK in Balb/c male mice, plasma. The series is classed as in vivo. The settings on record: for AUC(0-t) / C0 / clearance / half-life / Vd / Cmax / Tmax / Tlast / AUC0-last / T1/2: mouse plasma; for Vd: read-out: Vdss; for F: mouse, PO 2 mg/kg vs IV 0.4 mg/kg. How it is done: Test compounds were mixed with 10% dimethyl sulfoxide/50% polyethylene glycol 200/40% water (compounds 1, 4, 10, 17) or 20% N,N-dimethylacetamide/80% water (compound 5), vortexed and sonicated to prepare a nearly clear solution of 0.08 mg/mL (compounds 1, 4, 10, 17) or 0.50 mg/mL (compound 5), then filtered through a microporous membrane for next step. Balb/c male mice of 18 to 20 grams were selected and administered intravenously with the candidate compound solution at a dose of 0.4 (compounds 1, 4, 10, 17) or 1 mg/kg (compound 5). Test compounds were mixed with 10% dimethyl sulfoxide/50% polyethylene glycol 200/40% water (compounds 1, 4, 10, 17) or 20%-hydroxypropyl-β-cyclodextrin (compound 5), vortexed and sonicated to prepare a nearly clear solution of 0.2 mg/mL (compounds 1, 4, 10, 17) or 1 mg/mL (compound 5), then filtered through a microporous membrane for next step. Balb/c male mice of 18 to 20 grams were selected and orally administered with the candidate compound solution at a dose of 2 (compounds 1, 4, 10, 17) or 5 mg/kg (compound 5). Whole blood was collected for a certain period of time, and plasma was prepared, then drug concentration was detected by LC-MS/MS method, and pharmacokinetic parameters were calculated by Phoenix WinNonlin software (Pharsight, USA).
IV: intravenous injection; PO: oral; C0: instantaneous […] concentration after intravenous injection; Cmax: highest plasma concentration after administration; Tmax: time required to reach peak of drug concentration after administration; T1/2: time required for the plasma drug concentration to decrease by half, Vdss: apparent volume of distribution, refers to the proportional constant of the drug dose in vivo and the blood drug concentration when the drug reaches a dynamic equilibrium in vivo. Cl: clearance rate, refers to the […] cleared from the body per unit time; Tlast: time at the last detection point; AUC0-last: area under the drug-time curve, refers to the area covered by the plasma concentration curve and the time axis; F: a measure of the speed and degree of drug absorption into the blood circulation, which is an important indicator for evaluating the degree of drug absorption.

Setting [2] is: male, Balb/c, PO 2 mg/kg, read-out: Tmax.

For `Cc1cc2ncnn2cc1Nc1ncc2c(n1)n(N1C3CCC1COC3)c(=O)n2C` [Compound 4], on Human DNA-PK, the IC50 stood at 1 nM. In series [1] (male, Balb/c, IV 0.4 mg/kg), this compound showed an AUC(0-t) of 0.286 µM·h, a C0 of 919 nM, a clearance of 57 mL/min/kg and a half-life of 14.4 min. For the same compound, in series [1] (male, Balb/c, IV 0.4 mg/kg), the Vd was 1.08 L/kg. In series [1] (male, Balb/c, PO 2 mg/kg), the exposure AUC(0-t) came out at 1.74 µM·h, the Cmax is 1600 nM and the half-life is 36.5 min. Further, the Tmax in series [1] (setting [2]) stood at 15 min. The same compound returned a Tlast in series [1] (IV 0.4 mg/kg) of 2 h. Moreover, in series [1] (PO 2 mg/kg), the Tlast worked out at 4 h. In series [1], the F is 123%.

Turning to `Cc1nc2nccn2cc1Nc1ncc2c(n1)n(N1C3CCC1COC3)c(=O)n2C` [Compound 24], at Human DNA-PK, the IC50 was 68 nM.

Regarding `Cc1cc2ncnn2cc1Nc1ncc2c(n1)n(N1CCC3(CCO3)CC1)c(=O)n2C` [Compound 12], the IC50 on Human DNA-PK was determined as 4 nM.

With `Cc1cc2ncnn2cc1Nc1ncc2c(n1)n(N1CCOCC1)c(=O)n2C` [Compound 1], the IC50 at Human DNA-PK is 2 nM. For the same compound, in series [1] (male, Balb/c, IV 0.4 mg/kg), the C0 was determined as 959 nM, the clearance turned out to be 37.7 mL/min/kg and the Vd came out at 1.51 L/kg. Besides, in series [1] (IV 0.4 mg/kg), the AUC0-last turned out to be 0.426 µM·h, the T1/2 is 35.9 min and the Tlast stood at 4 h. Moreover, in series [1] (PO 2 mg/kg), the AUC0-last came out at 2.497 µM·h, the highest concentration (Cmax) worked out at 1420 nM, the T1/2 was determined as 50.5 min and the Tlast worked out at 8 h. Also, in series [1] (PO 2 mg/kg), the Tmax stood at 30 min. This compound showed a F in series [1] of 96.4%.

As for `Cc1cc2ncnn2cc1Nc1ncc2c(n1)n(N1CCC(F)(F)CC1)c(=O)n2C` [Compound 7], at Human DNA-PK, the IC50 was determined as 2 nM.

With `Cc1cc2ncnn2cc1Nc1ncc2c(n1)n(N1CC3CC(C1)O3)c(=O)n2C` [Compound 6], on Human DNA-PK, the half-maximal inhibitory concentration (IC50) was 1 nM.

Regarding `Cc1cc2nncn2cc1Nc1ncc2c(n1)n(N1C3CCC1COC3)c(=O)n2C` [Compound 18], on Human DNA-PK, the half-inhibitory concentration (IC50) amounted to 0.9 nM.

`Cc1cn2ncnc2cc1Nc1ncc2c(n1)n(N1CC3CCC(C1)O3)c(=O)n2C` [Compound 21]: on Human DNA-PK, the half-inhibitory concentration (IC50) amounted to 0.5 nM.

For `Cc1cc2nccn2cc1Nc1ncc2c(n1)n(N1C3CCC1COC3)c(=O)n2C` [Compound 20], the IC50 on Human DNA-PK is 0.9 nM.

Take `Cc1cc2ncnn2cc1Nc1ncc2c(n1)n(N1CCC3(CC1)COC3)c(=O)n2C` [Compound 11]: the half-inhibitory concentration (IC50) on Human DNA-PK turned out to be 5 nM.

With `Cc1nc2nccn2cc1Nc1ncc2c(n1)n(N1CC3CCC(C1)O3)c(=O)n2C` [Compound 23], on Human DNA-PK, the IC50 was 10 nM.

Take `Cc1cc2ncnn2cc1Nc1ncc2c(n1)n(N1CC3CC3C1)c(=O)n2C` (stereo not drawn) [Compound 16]: the IC50 at Human DNA-PK amounted to 0.5 nM.

For `Cc1cc2nccn2cc1Nc1ncc2c(n1)n(N1CC3CCC(C1)O3)c(=O)n2C` [Compound 19], the IC50 on Human DNA-PK is 0.6 nM.

In the case of `Cc1cc2ncnn2cc1Nc1ncc2c(n1)n(N1CC3CCCC3C1)c(=O)n2C` (stereo not drawn) [Compound 15], the IC50 on Human DNA-PK worked out at 1 nM.

Turning to `Cc1cn2ncnc2cc1Nc1ncc2c(n1)n(N1C3CCC1COC3)c(=O)n2C` [Compound 22], at Human DNA-PK, the IC50 stood at 0.4 nM.

Consider `Cc1cc2ncnn2cc1Nc1ncc2c(n1)n(N1CCC(C#N)CC1)c(=O)n2C` [Compound 14], for which the concentration for half-maximal inhibition (IC50) on Human DNA-PK was 5 nM.

With `Cc1cc2ncnn2cc1Nc1ncc2c(n1)n(N1CCOC3(CCC3)C1)c(=O)n2C` [Compound 13], on Human DNA-PK, the half-inhibitory concentration (IC50) stood at 2 nM.

For the compound `Cc1cc2ncnn2cc1Nc1ncc2c(n1)n(N1CCOC3(CC3)C1)c(=O)n2C` [Compound 10], the IC50 on Human DNA-PK turned out to be 2.5 nM. In series [1] (male, Balb/c, IV 0.4 mg/kg), the AUC(0-t) came out at 0.64 µM·h, the C0 is 1120 nM, the clearance came to 25.4 mL/min/kg and the half-life is 35.5 min. Also, in series [1] (male, Balb/c, IV 0.4 mg/kg), the Vd came out at 0.883 L/kg. For the same compound, in series [1] (male, Balb/c, PO 2 mg/kg), the area under the curve AUC(0-t) worked out at 3.83 µM·h, the Cmax was 2060 nM and the half-life was 73.2 min. Also, in series [1] (setting [2]), the Tmax is 30 min. Moreover, the Tlast in series [1] (IV 0.4 mg/kg) was found to be 4 h. In series [1] (PO 2 mg/kg), the Tlast is on record as 8 h. Further, the F in series [1] was determined as 120%.

Values taken from US20230026616A1, “PYRIMIDOIMIDAZOLE COMPOUNDS USED AS DNA-PK INHIBITORS” (MEDSHINE DISCOVERY INC., priority 2019, published 2023).
